From US6034069A, “3-'N-modified 6-O-substituted erythromycin ketolide derivatives having antibacterial activity” (priority 1998, dated 2000)

How the values were obtained:
[1] = test system: Streptococcus Pheumoniae 5979; assay: in vitro antibacterial activity, agar dilution MIC; assay type: cell-based; settings: Organism code ZZ; BHI agar, 35-37° C., 20 to 24 hours
Experimental: (§1) Representative compounds of the present invention were assayed in vitro for antibacterial activity as follows: Twelve petri dishes containing successive aqueous dilutions of the test compound mixed with 10 mL of sterilized Brain Heart Infusion (BHI) agar (Difco 0418-01-5) were prepared. Each plate was inoculated with 1:100 (or 1:10 for slow-growing strains, such as Micrococcus and Streptococcus) dilutions of up to 32 different microorganisms, using a Steers replicator block. […] In addition, a control plate, using BHI agar containing no test compound, was prepared and incubated at the beginning and end of each test.
(§2) An additional plate containing a compound having known susceptibility patterns for the organisms being tested and belonging to the same antibiotic class as the test compound was also prepared and incubated as a further control, as well as to provide test-to-test comparability.
(§3) After incubation, each plate was visually inspected. The minimum inhibitory concentration (MIC) was defined as the lowest concentration of drug yielding no growth, a slight haze, or sparsely isolated colonies on the inoculum spot as compared to the growth control.

Escherichia coli DC-2 = assay: in vitro antibacterial activity, agar dilution MIC; assay type: cell-based; settings: Organism code SS; BHI agar, 35-37° C., 20 to 24 hours
Experimental: as §1, §2, §3

With `CCCN(C)[C@H]1C[C@@H](C)O[C@@H](O[C@@H]2[C@@H](C)C(=O)[C@@H](C)C(=O)O[C@H](CC)[C@@]3(C)OC(=O)N[C@@H]3[C@@H](C)C(=O)[C@H](C)C[C@@]2(C)OCC=Cc2cnc3ccccc3c2)[C@@H]1O` [Example 16] the “minimum inhibitory concentration (MIC)” value [1] was 128.
With `CC[C@H]1OC(=O)[C@H](C)C(=O)[C@H](C)[C@@H](O[C@@H]2O[C@H](C)C[C@H](N(C)CCF)[C@H]2O)[C@](C)(OCC=Cc2cnc3ccccc3c2)C[C@@H](C)C(=O)[C@H](C)[C@H]2NC(=O)O[C@@]21C` [Example 7] the “minimum inhibitory concentration (MIC)” value (Escherichia coli DC-2) was over 100.
With `CC[C@H]1OC(=O)[C@H](C)C(=O)[C@H](C)[C@@H](O[C@@H]2O[C@H](C)C[C@H](N(C)Cc3cccnc3)[C@H]2O)[C@](C)(OCC=Cc2cnc3ccccc3c2)C[C@@H](C)C(=O)[C@H](C)[C@H]2NC(=O)O[C@@]21C` [Example 14] the “minimum inhibitory concentration (MIC)” value [1] was over 128.
For `C=C(CN(C)[C@H]1C[C@@H](C)O[C@@H](O[C@@H]2[C@@H](C)C(=O)[C@@H](C)C(=O)O[C@H](CC)[C@@]3(C)OC(=O)N[C@@H]3[C@@H](C)C(=O)[C@H](C)C[C@@]2(C)OCC=Cc2cnc3ccccc3c2)[C@@H]1O)C(=O)OC` [Example 18], the “minimum inhibitory concentration (MIC)” value [1] was 128.
For `C=C(C)CN(C)[C@H]1C[C@@H](C)O[C@@H](O[C@@H]2[C@@H](C)C(=O)[C@@H](C)C(=O)O[C@H](CC)[C@@]3(C)OC(=O)N[C@@H]3[C@@H](C)C(=O)[C@H](C)C[C@@]2(C)OCC=Cc2cnc3ccccc3c2)[C@@H]1O` [Example 19], the “minimum inhibitory concentration (MIC)” value [1] was 128.
`CC[C@H]1OC(=O)[C@H](C)C(=O)[C@H](C)[C@@H](O[C@@H]2O[C@H](C)C[C@H](N(C)CC3CC3)[C@H]2O)[C@](C)(OCC=Cc2cnc3ccccc3c2)C[C@@H](C)C(=O)[C@H](C)[C@H]2NC(=O)O[C@@]21C` [Example 15] was tested, and the “minimum inhibitory concentration (MIC)” value [1] was over 128.
With `CC[C@H]1OC(=O)[C@H](C)C(=O)[C@H](C)[C@@H](O[C@@H]2O[C@H](C)C[C@H](N(C)CC#N)[C@H]2O)[C@](C)(OCC=Cc2cnc3ccccc3c2)C[C@@H](C)C(=O)[C@H](C)[C@H]2NC(=O)O[C@@]21C` [Example 9] the “minimum inhibitory concentration (MIC)” value [1] was 128.
